# From BindingDB's records for doi:10.1021/jm970059p (University of Illinois At Chicago, 1998)
# Assay: Inhibition of [3H]-TCP binding to PCP receptor obtained from tissue homogenate preparation of fresh whole rat brain minus cerebellum
row,SMILES,IC50 [µM]
1,"c1ccc2c(c1)C1CCCCC21N1CCCCC1 (stereo not drawn) [1-(1,3,4,8b-Tetrahydro-2H-biphenylen-4a-yl)-piperidine]",4.27
2,"c1ccc2c(c1)C1CCC2(N2CCCCC2)C1 (stereo not drawn) [1-(3,4-Dihydro-2H-1,4-methano-naphthalen-1-yl)-piperidine]",107
3,"c1ccc2c(c1)C1CCC2(N2CCCCC2)CC1 [1-Tricyclo[6.2.2.0*2,7*]dodeca-2(7),3,5-trien-1-yl-piperidine]",118
